Experimental data as given in PMC8967716, “Inhibition of calcium-triggered secretion by hydrocarbon-stapled peptides” (Nature, 2022).
Where “and” joins values, the source holds several entries; their conditions need not be identical. Equal values may be shown once. Entries after “also recorded” stand apart in the source; their conditions may differ. Positions of bridges follow the written chain, without caps; N, C: chain ends. Non-standard residues stand in square brackets, D forms with d. Residues, ends and D or L forms follow the SMILES beside them. S5 = C=CCCC[C@](C)(N)C(=O)O

Key:
airway lumenal mucus = assay: Airway lumenal mucus occlusion in peptide-treated mice; details: IL-13 metaplasia, 200 μM peptide by microsprayer 30 min before methacholine; sections at 500 µm intervals; each value one mouse
[1] = biological target: SP9–Cy3 (hydrocarbon-stapled SNAP-25A fragment SP9 labelled with Cy3 at the C terminus); assay: fluorescence polarisation; bulk fluorescence anisotropy; 10 nM Cy3-labelled peptide mixed with varying concentrations of unlabelled C2B domain; TBS (20 mM Tris, pH 7.5, 150 mM NaCl, 0.5 mM TCEP), 27.2 °C; Hill equation fit with the Hill coefficient constrained to 1
[2] = CD spectroscopy, α-helical content; type: physicochemical; details: 100 μM peptide in PBS pH 7.4, [φ]222obs relative to model helical decapeptide
Procedure: CD spectra were measured using the AVIV stop-flow CD spectropolarimeter at 190–250 nm using a cell with a 1 mm path length. […] For the correction of the baseline error, the signal from a blank run with PBS buffer was subtracted from all the experimental spectra. The α-helical content of each peptide was calculated by dividing the mean residue ellipticity [φ]222obs by the reported [φ]222obs for a model helical decapeptide.

[3] = biological target: airway SNAREs, Syt2, Munc13-2*, Munc18-2, NSF and αSNAP (Rattus norvegicus, UniProt P29101); assay: Single-vesicle content mixing assay, complete reconstitution; type: biochemical
Sequence of airway SNAREs, Syt2, Munc13-2*, Munc18-2, NSF and αSNAP (P29101 whole entry): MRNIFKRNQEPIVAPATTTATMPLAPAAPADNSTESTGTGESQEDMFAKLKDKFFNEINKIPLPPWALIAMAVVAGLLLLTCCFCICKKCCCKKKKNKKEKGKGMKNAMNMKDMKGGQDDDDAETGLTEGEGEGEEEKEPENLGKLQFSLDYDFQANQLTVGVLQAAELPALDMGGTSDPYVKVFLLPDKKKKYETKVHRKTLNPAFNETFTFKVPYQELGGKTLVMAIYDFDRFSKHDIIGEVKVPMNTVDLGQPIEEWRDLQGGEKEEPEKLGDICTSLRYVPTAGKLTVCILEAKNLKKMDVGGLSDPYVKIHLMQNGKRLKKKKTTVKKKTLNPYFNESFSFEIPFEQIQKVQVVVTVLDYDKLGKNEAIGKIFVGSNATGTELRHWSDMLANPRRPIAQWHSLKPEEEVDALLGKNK
Procedure: For the complete reconstitution (Fig. 3), to form airway SM vesicles with reconstituted Stx3–Munc18-2 complex, we added the ‘disassembly factors’ (1 μM Munc18-2, 0.5 μM NSF, 5 μM αSNAP, 3 mM ATP and 3 mM Mg^2+) to tethered airway PM vesicles (Fig. 3b), according to previous work with neuronal proteins. This procedure results in tethered SM vesicles.

airway SNAREs alone = assay: Single-vesicle content mixing assay, airway SNAREs alone (VAMP8 vesicles); details: for Ca2+ independent fusion per sec: ED Fig 7k
[4] = test system: MUC5AC secretion from primary human airway epithelial (HAE) cells; assay: Mucin-secretion assay in HAE cells; details: 10 μM peptide 30 min; for ratio of experimental to baseline MUC5AC secretion, mean: mean of n = 4–5 ALI cultures
neuronal SNAREs alone = assay: Single-vesicle content mixing assay, neuronal SNAREs alone (VAMP2 vesicles); type: biochemical
[5] = test system: reconstituted neuronal SNAREs (Stx1A, SNAP-25A, VAMP2) and Syt1; assay: Single-vesicle content mixing assay, neuronal SNAREs and Syt1; type: biochemical
[6] = biological target: reconstituted airway epithelial SNAREs (Stx3, SNAP-23, VAMP8) and Syt2 (Rattus norvegicus, UniProt P29101); assay: Single-vesicle content mixing assay, simple reconstitution (SR); details: for Ca2+ independent fusion per sec: ED Fig 7d
Sequence of reconstituted airway epithelial SNAREs (Stx3, SNAP-23, VAMP8) and Syt2 (P29101 whole entry, the tested form may be a part): as the sequence (P29101 whole entry) above

[7] = biological target: Syt1 C2B(QM) quintuple mutant (Rattus norvegicus, UniProt P21707, E295A/R281A/R398A/R399A/Y338W); assay: Bulk fluorescence anisotropy binding; details: Cy3-labelled SP9, fluorescence anisotropy
Sequence of Syt1 C2B(QM) quintuple mutant (P21707 271-421 R281A/E295A/Y338W/R398A/R399A): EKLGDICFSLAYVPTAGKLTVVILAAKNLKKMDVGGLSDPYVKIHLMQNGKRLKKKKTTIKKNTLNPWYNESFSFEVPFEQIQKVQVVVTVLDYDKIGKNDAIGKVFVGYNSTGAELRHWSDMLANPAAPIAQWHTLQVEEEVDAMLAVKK

[8] = 10 μM peptide, each value one repeat experiment

Sequence of Syt1 C2B (C2B domain of synaptotagmin-1, amino acid range 271–421) (P21707 271-421): as the sequence (P21707 271-421 R281A/E295A/Y338W/R398A/R399A) above, with A11R, A25E, W68Y, A128R, A129R counted along it
Sequence of Syt2 C2B (C2B domain of synaptotagmin-2, amino acid range 272–422) (P29101 272-422): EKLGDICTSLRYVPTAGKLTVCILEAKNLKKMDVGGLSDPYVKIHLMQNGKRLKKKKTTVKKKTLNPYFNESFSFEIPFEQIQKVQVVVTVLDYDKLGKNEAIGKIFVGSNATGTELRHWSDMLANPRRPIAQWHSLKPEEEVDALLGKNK

Ac-EESKDAGIRTLVMLDEQ-NH2 [P9]
sum of lumenal mucus cross-sectional area, caudal lobe of the right lung (airway lumenal mucus): 0.382 and 0.464 and 0.617 and 0.201 and 0.286 and 0.712 and 0.372

Syt2 C2B (C2B domain of synaptotagmin-2, amino acid range 272–422) (from UniProt P29101 272-422) (domain or fragment)
Kd [1]: 35 µM

Syt1 C2B (C2B domain of synaptotagmin-1, amino acid range 271–421) (from UniProt P21707 271-421) (domain or fragment)
Kd [1]: 24 µM

CC[C@H](C)[C@H](NC(=O)[C@]1(C)CCCC=CCCC[C@](C)(NC(=O)[C@H](CCC(=O)O)NC(=O)[C@H](CCC(=O)O)NC(C)=O)C(=O)N[C@@H](CCCCN)C(=O)N[C@@H](CC(=O)O)C(=O)N[C@@H](C)C(=O)N1)C(=O)N[C@@H](CCCNC(=N)N)C(=O)N[C@@]1(C)CCCC=CCCC[C@@](C)(C(=O)N[C@@H](CC(=O)O)C(=O)N[C@@H](CCC(=O)O)C(=O)N[C@@H](CCC(N)=O)C(=O)N[C@@H](CS)C(N)=O)NC(=O)[C@H](CCSC)NC(=O)[C@H](C(C)C)NC(=O)[C@H](CC(C)C)NC1=O [SP9] (Ac-EE[S5]KDA[S5]IR[S5]LVM[S5]DEQC-NH2; staple 3-7, 10-14)
helicity in solution [2]: substantial helical content | effect on Ca2+-independent fusion probability ([3]; 10 μM SP9): only moderately reduced; also recorded: relatively modest | effect on Ca2+-triggered fusion amplitude, cumulative fusion probability and synchronization ([3]; 10 μM SP9, 50 μM and 500 μM Ca2+): strongly inhibited | Ca2+ independent fusion per sec (average probability) ([3]; 10 μM SP9, each value one repeat experiment): 0.0004902 and 0.0004307 and 0.0004714 and 0.0004646 and 0.0003557 and 0.0002469 | Vesicle association ([3]; 10 μM SP9 added with SG vesicles, each value one repeat experiment): 88 and 78 and 74 and 91 | decrease in the Ca2+-triggered fusion amplitude ([3]; 10 μM SP9 vs no peptide): eight to tenfold decrease | effect on vesicle association ([3]; 10 μM SP9 vs no peptide): no effect | triggered fusion accumulative probability (within 1 min) ([3]; 50uM Ca2+, 10 μM SP9, each value one repeat experiment): 0.0662 and 0.06402 and 0.09074 | triggered fusion accumulative probability (within 1 min) ([3]; 500uM Ca2+, 10 μM SP9, each value one repeat experiment): 0.08824 and 0.05943 and 0.07879 | Ca2+ independent fusion per sec (airway SNAREs alone; repeat 1): 0.0003451 | Ca2+ independent fusion per sec (airway SNAREs alone; repeat 2): 0.000303 | Ca2+ independent fusion per sec (airway SNAREs alone; repeat 3): 0.0004574 | Ca2+ independent fusion per sec (airway SNAREs alone; repeat 4): 0.0004141 | effect on vesicle fusion without Syt2 (VAMP8 vesicles) (airway SNAREs alone; SP9 vs no peptide): no effect; also recorded: inhibitory effect of SP9 was eliminated | ratio of experimental to baseline MUC5AC secretion, mean ([4]; IL13+ATP (100 µM ATP)): 3.4860 | ratio of experimental to baseline MUC5AC secretion, mean ([4]; IL13, no ATP): 0.7820 | ratio of baseline to reference wash MUC5AC secretion, mean ([4]; IL-13 cultures, mean of n = 8–10 ALI cultures): 0.7120 | Ca2+ independent fusion per sec (average probability) (neuronal SNAREs alone; [8]): 0.0007718 and 0.0006567 and 0.001053 and 0.0009453 | Vesicle association (neuronal SNAREs alone; [8]): 135 and 160 and 137 | effect on vesicle fusion without Syt1 (VAMP2 vesicles) (neuronal SNAREs alone; SP9 vs no peptide): no effect; also recorded: little effect | Vesicle association ([5]; 10 μM peptide added with SV vesicles, each value one repeat experiment): 248 and 327 and 271 | effect on Ca2+-triggered and Ca2+-independent fusion ([5]; SP9 vs no peptide): reduced both Ca^2+-triggered fusion and Ca^2+-independent fusion | effect on vesicle association ([5]; SP9 vs no peptide): no effect | Ca2+ independent fusion per sec (average probability) ([6]; 10 μM peptide added with SG vesicles, each value one repeat experiment): 0.0006901 and 0.0004797 and 0.000382 and 0.0006421 | effect on Ca2+-independent fusion probability and Ca2+-triggered cumulative fusion probability ([6]; 10 µM peptide vs no peptide): reduced both Ca^2+-triggered and, to a lesser degree, Ca^2+-independent fusion | Ca2+ independent fusion per sec ([6]; repeat 1): 0.0006901 | Ca2+ independent fusion per sec ([6]; repeat 2): 0.0004797 | Ca2+ independent fusion per sec ([6]; repeat 3): 0.000382 | Ca2+ independent fusion per sec ([6]; repeat 4): 0.0006421 | effect on vesicle association ([6]; SP9 vs no peptide): no effect | binding to quintuple mutant Syt1 C2B(QM) [7]: does not bind
